Values quoted from earlier work, collected in patent US20230106506A1, “NOVEL PqsR INVERSE AGONISTS” (Helmholtz-Zentrum Fur Infektionsforschung GmbH, priority 2020, published 2023).

How the values were obtained:
[1] = tested on: production of signal molecules HHQ and PQS; details: cited from earlier work
[2] = tested on: virulence factor elastase; details: cited from earlier work

Structure (SMILES): COC(=O)c1ccccc1N [methyl anthranilate]
- inhibition of PQS formation, active concentration [1]: millimolar concentrations
- inhibition of production of the virulence factor elastase, active concentration [2]: millimolar concentrations
